Data published in patent publication US11833149B2, “Pulse dosing regimen and methods of treatment” (OSI Pharmaceuticals, LLC, priority 2016, dated 2023).
Entries after “also recorded” stand apart in the source; their conditions may differ.

Key:
EGFR-mutant lung cancers = experiment: Phase 1 study of pulse-continuous erlotinib: response (RECIST 1.1) and progression-free survival; assay type: in vivo, patients
Protocol: (§1) The study was registered at clinicaltrials.gov (NCT01967095). […] All patients provided written informed consent.
Prior cytotoxic chemotherapy was allowed. Patients were required to have measurable disease per RECIST (Response Evaluation Criteria in Solid Tumours), version 1.1). […] Patients with clinically stable brain metastases, either treated or untreated, were eligible.
Response assessments: Response to therapy was assessed by interval imaging every 6 weeks with a CT scan with response evaluated per RECIST 1.1. After six cycles on treatment, patients could reduce the radiographic assessments to every 4 cycles (12 weeks).
Statistical Analysis: Descriptive statistics were used to summarize the clinical characteristics of the patients. Progression-free survival was estimated using the Kaplan-Meier method, and defined as the time from start of study therapy until progression or death. […] Response rates were calculated using binomial proportions and exact 95% CIs. All statistical analyses were performed using R 3.2.2 (R Development Core Team) including the “survival” and “Hmisc” packages.

brain metastases = experiment: Phase 1 study of pulse-continuous erlotinib: central nervous system activity; assay type: in vivo, patients
From the text: as §1
Central nervous system activity: A brain MRI was required at enrollment.

[1] = Phase 1 study: pharmacokinetic analysis of plasma (LC-MS/MS); assay type: in vivo, patients
Protocol: Pharmacokinetic analysis: Whole-blood samples for plasma were collected at prescheduled time points for pharmacokinetic (PK) analysis. Plasma levels of erlotinib were determined using a validated liquid chromatography-tandem mass spectrometry assay. […] MS detection was using an AB SCIEX API 4000 triple quadrupole mass spectrometer operating in positive ion electrospray ionization (ESI) mode. Standard PK parameters were calculated using a noncompartmental method (WiNNonlin, Pharsight).

[2] = in vivo
Protocol: (§2) Toxicity assessments: Patients were assessed five times during cycle 1 (28 days) and then every 21 days thereafter. Patient history, physical examination, complete blood count and serum chemistries were performed at each visit. Toxicity was graded according to the National Cancer Institute Common Terminology Criteria for Adverse Events (NCI CTCAE), version 4.

[3] = cited from earlier work
[4] = test system: EGFR-mutant lung cancers with CNS involvement; settings: median dose erlotinib 1500 mg once weekly (Grommes et al.); cited from earlier work
[5] = cited from earlier work; remark: listed apart in the source
[6] = Phase 1 dose-escalation study of pulse-continuous erlotinib: DLT, MTD, adverse events
Protocol: as §2

[7] = erlotinib 1500 mg once weekly (Clarke et al.)

C#Cc1cccc(Nc2ncnc3cc(OCCOC)c(OCCOC)cc23)c1 [erlotinib, N-(3-ethynylphenyl)-6,7-bis(2-methoxyethoxy)-4-quinazolinamine]
patients with complete response (EGFR-mutant lung cancers; 34 patients): one | patients with confirmed partial responses (EGFR-mutant lung cancers; 34 patients): Twenty-four | median progression-free survival (EGFR-mutant lung cancers; 95% CI 5.8-15.4 months): 9.9 months | overall response rate (EGFR-mutant lung cancers; intent to treat, 34 patients, 95% CI 60-84%): 74% | change in the sum of target lesions (EGFR-mutant lung cancers; patients with radiographic assessment): All patients had a decrease | patients with evidence of tumor regression in the CNS (brain metastases; 6 patients with untreated brain metastases): 6 | radiographic evidence of new or progressing brain metastases (brain metastases; 16 patients with CNS imaging within three months of coming off study for progression): none | CNS progression on study treatment (brain metastases; all patients): none of the patients; also recorded: No patients | change of peak plasma concentration with increasing pulse doses ([1]; 600 mg to 1,350 mg, Cycle 1): no significant increases | range of peak plasma concentration ([1]; 4 hr post-administration, Week 2): 2,600-9355 ng/mL | median peak plasma concentration ([1]; 4 hr post-administration, after the second day of weekly pulse dose at Week 2): 5,393 ng/mL | median plasma trough concentration ([1]; before the pulse dosing at the start of week 4): 435 ng/mL | median plasma trough concentration ([1]; start of week 4): 1.1 µM | range of plasma trough concentration ([1]; start of week 4): 29 to 1655 ng/mL | ALT elevated Grade 1 (% of patients) ([2]; human): (18%) | ALT elevated Grade 1 (patients) ([2]; human): 6 | ALT elevated Grade 2 (% of patients) ([2]; human): (3%) | ALT elevated Grade 2 (patients) ([2]; human): 1 | ALT elevated Grade 3 (% of patients) ([2]; human): (3%) | ALT elevated Grade 3 (patients) ([2]; human): 1 | ALT elevated Grade 4 (patients) ([2]; human): 0 | ALT elevated Total (any grade) (% of patients) ([2]; human): (24%) | ALT elevated Total (any grade) (patients) ([2]; human): 8 | AST increased Grade 1 (% of patients) ([2]; human): (15%) | AST increased Grade 1 (patients) ([2]; human): 5 | AST increased Grade 2 (% of patients) ([2]; human): (3%) | AST increased Grade 2 (patients) ([2]; human): 1 | AST increased Grade 3 (patients) ([2]; human): 0 | AST increased Grade 4 (patients) ([2]; human): 0 | AST increased Total (any grade) (% of patients) ([2]; human): (18%) | AST increased Total (any grade) (patients) ([2]; human): 6 | Alopecia Grade 1 (% of patients) ([2]; human): (21%) | Alopecia Grade 1 (patients) ([2]; human): 7 | Alopecia Grade 2 (patients) ([2]; human): 0 | Alopecia Grade 3 (patients) ([2]; human): 0 | Alopecia Grade 4 (patients) ([2]; human): 0 | Alopecia Total (any grade) (% of patients) ([2]; human): (21%) | Alopecia Total (any grade) (patients) ([2]; human): 7 | Anemia Grade 1 (% of patients) ([2]; human): (6%) | Anemia Grade 1 (patients) ([2]; human): 2 | Anemia Grade 2 (% of patients) ([2]; human): (3%) | Anemia Grade 2 (patients) ([2]; human): 1 | Anemia Grade 3 (% of patients) ([2]; human): (3%) | Anemia Grade 3 (patients) ([2]; human): 1 | Anemia Grade 4 (patients) ([2]; human): 0 | Anemia Total (any grade) (% of patients) ([2]; human): (12%) | Anemia Total (any grade) (patients) ([2]; human): 4 | Anorexia Grade 1 (% of patients) ([2]; human): (9%) | Anorexia Grade 1 (patients) ([2]; human): 3 | Anorexia Grade 2 (% of patients) ([2]; human): (6%) | Anorexia Grade 2 (patients) ([2]; human): 2 | Anorexia Grade 3 (patients) ([2]; human): 0 | Anorexia Grade 4 (patients) ([2]; human): 0 | Anorexia Total (any grade) (% of patients) ([2]; human): (15%) | Anorexia Total (any grade) (patients) ([2]; human): 5 | Bilirubin increased Grade 1 (% of patients) ([2]; human): (12%) | Bilirubin increased Grade 1 (patients) ([2]; human): 4 | Bilirubin increased Grade 2 (% of patients) ([2]; human): (15%) | Bilirubin increased Grade 2 (patients) ([2]; human): 5 | Bilirubin increased Grade 3 (% of patients) ([2]; human): (6%) | Bilirubin increased Grade 3 (patients) ([2]; human): 2 | Bilirubin increased Grade 4 (patients) ([2]; human): 0 | Bilirubin increased Total (any grade) (% of patients) ([2]; human): (32%) | Bilirubin increased Total (any grade) (patients) ([2]; human): 11 | Diarrhea Grade 1 (% of patients) ([2]; human): (71%) | Diarrhea Grade 1 (patients) ([2]; human): 24 | Diarrhea Grade 2 (% of patients) ([2]; human): (3%) | Diarrhea Grade 2 (patients) ([2]; human): 1 | Diarrhea Grade 3 (% of patients) ([2]; human): (12%) | Diarrhea Grade 3 (patients) ([2]; human): 4 | Diarrhea Grade 4 (patients) ([2]; human): 0 | Diarrhea Total (any grade) (% of patients) ([2]; human): (85%) | Diarrhea Total (any grade) (patients) ([2]; human): 29 | Dry skin Grade 1 (% of patients) ([2]; human): (29%) | Dry skin Grade 1 (patients) ([2]; human): 10 | Dry skin Grade 2 (patients) ([2]; human): 0 | Dry skin Grade 3 (patients) ([2]; human): 0 | Dry skin Grade 4 (patients) ([2]; human): 0 | Dry skin Total (any grade) (% of patients) ([2]; human): (29%) | Dry skin Total (any grade) (patients) ([2]; human): 10 | Fatigue Grade 1 (% of patients) ([2]; human): (24%) | Fatigue Grade 1 (patients) ([2]; human): 8 | Fatigue Grade 2 (% of patients) ([2]; human): (12%) | Fatigue Grade 2 (patients) ([2]; human): 4 | Fatigue Grade 3 (patients) ([2]; human): 0 | Fatigue Grade 4 (patients) ([2]; human): 0 | Fatigue Total (any grade) (% of patients) ([2]; human): (35%) | Fatigue Total (any grade) (patients) ([2]; human): 12 | Mucositis Grade 1 (% of patients) ([2]; human): (24%) | Mucositis Grade 1 (patients) ([2]; human): 8 | Mucositis Grade 2 (% of patients) ([2]; human): (9%) | Mucositis Grade 2 (patients) ([2]; human): 3 | Mucositis Grade 3 (% of patients) ([2]; human): (3%) | Mucositis Grade 3 (patients) ([2]; human): 1 | Mucositis Grade 4 (patients) ([2]; human): 0 | Mucositis Total (any grade) (% of patients) ([2]; human): (35%) | Mucositis Total (any grade) (patients) ([2]; human): 12 | Nausea Grade 1 (% of patients) ([2]; human): (29%) | Nausea Grade 1 (patients) ([2]; human): 10 | Nausea Grade 2 (% of patients) ([2]; human): (9%) | Nausea Grade 2 (patients) ([2]; human): 3 | Nausea Grade 3 (% of patients) ([2]; human): (6%) | Nausea Grade 3 (patients) ([2]; human): 2 | Nausea Grade 4 (patients) ([2]; human): 0 | Nausea Total (any grade) (% of patients) ([2]; human): (44%) | Nausea Total (any grade) (patients) ([2]; human): 15 | Paronychia Grade 1 (% of patients) ([2]; human): (12%) | Paronychia Grade 1 (patients) ([2]; human): 4 | Paronychia Grade 2 (% of patients) ([2]; human): (6%) | Paronychia Grade 2 (patients) ([2]; human): 2 | Paronychia Grade 3 (patients) ([2]; human): 0 | Paronychia Grade 4 (patients) ([2]; human): 0 | Paronychia Total (any grade) (% of patients) ([2]; human): (18%) | Paronychia Total (any grade) (patients) ([2]; human): 6 | Pruritis Grade 1 (% of patients) ([2]; human): (32%) | Pruritis Grade 1 (patients) ([2]; human): 11 | Pruritis Grade 2 (patients) ([2]; human): 0 | Pruritis Grade 3 (patients) ([2]; human): 0 | Pruritis Grade 4 (patients) ([2]; human): 0 | Pruritis Total (any grade) (% of patients) ([2]; human): (32%) | Pruritis Total (any grade) (patients) ([2]; human): 11 | Rash Grade 1 (% of patients) ([2]; human): (62%) | Rash Grade 1 (patients) ([2]; human): 21 | Rash Grade 2 (% of patients) ([2]; human): (24%) | Rash Grade 2 (patients) ([2]; human): 8 | Rash Grade 3 (% of patients) ([2]; human): (3%) | Rash Grade 3 (patients) ([2]; human): 1 | Rash Grade 4 (patients) ([2]; human): 0 | Rash Total (any grade) (% of patients) ([2]; human): (88%) | Rash Total (any grade) (patients) ([2]; human): 30 | Vomiting Grade 1 (% of patients) ([2]; human): (26%) | Vomiting Grade 1 (patients) ([2]; human): 9 | Vomiting Grade 2 (% of patients) ([2]; human): (3%) | Vomiting Grade 2 (patients) ([2]; human): 1 | Vomiting Grade 3 (% of patients) ([2]; human): (3%) | Vomiting Grade 3 (patients) ([2]; human): 1 | Vomiting Grade 4 (patients) ([2]; human): 0 | Vomiting Total (any grade) (% of patients) ([2]; human): (32%) | Vomiting Total (any grade) (patients) ([2]; human): 11 | patients removed for diarrhea ([2]; human): 2 | patients removed for hyperbilirubinemia ([2]; human): 1 | patients removed for mucositis ([2]; human): 1 | patients removed for possible pneumonitis ([2]; human): 1 | patients removed for transaminitis ([2]; human): 1 | patients removed from the study for toxicity [2]: Six | patients requiring a dose reduction of the pulse dose [2]: three of sixteen | tolerability [2]: well tolerated | cerebrospinal fluid (CSF) concentration as % of plasma concentration ([3]; Togashi et al.): 3-5% | concurrent CSF concentration [3, 7]: 120 nM | peak plasma concentration [3, 7]: 11,300 nM | patients with partial response in the CNS [4]: Six of nine | maximum tolerated dose (MTD) ([5]; once weekly, unselected patients with advanced lung cancers (Milton et al.), MTD not reached): ≥ 2000 mg | MTD ([5]; twice-weekly pulse dose (Chia et al.), DLT of rash at higher dose levels): 1000 mg | deaths on study ([6]; all 34 patients): no deaths | grade four or five toxicities ([6]; all 34 patients): No grade four or five toxicities | MTD (pulse dose) ([6]; pulse on days 1 and 2 with 50 mg erlotinib on days 3 to 7): 1200 mg
